From PubChem BioAssay (NCI) come the findings set out here.

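Growth conditions: 96-well plates. Treatment: test compound, 48 hours, 5 concentrations. Analysis: linear interpolation between bracketing concentrations; unreached endpoints set to highest concentration. TGI denotes the concentration required for complete inhibition of growth.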

Assay in all cases: NCI-60 cell line screen, 48 h
The test system of assay [1] is TK-10 renal.
Assay [2] deals with MDA-MB-435.
In assay [3] the test system is OVCAR-5 ovarian.
In assay [4] the test system is UACC-62 melanoma.
Assay [5] concerns IGROV1 ovarian.
Assay [6] concerns SNB-75 CNS.
The test system of assay [7] is M14 melanoma.
Assay [8] concerns HS 578T breast.
Assay [9] relates to NCI/ADR-RES ovarian.
Assay [10] concerns UO-31 renal.

As for `O=C1CSC2(CC(/C=C/c3cccs3)=NN2c2cccc(S(=O)(=O)O)c2)N1c1nc2ccccc2s1` (stereo not given), the TGI in [1], in [2], in [3], in assay [4], in assay [5] and in assay [6] was over 100 µM each time. In addition, the TGI in assay [7], in assay [8], in assay [9] and in assay [10] was over 100 µM each time.

As to `O=C(CN1C(=O)CC(c2ccccc2)(c2ccccc2)C1=O)N1CCN(CCO)CC1`, the TGI in [1], in assay [2], in assay [3], in [4], in assay [5] and in assay [6] was over 100 µM throughout. In addition, the TGI in assay [7], in assay [8], in assay [9] and in assay [10] was over 100 µM in each case.

Take `CCN(C(=O)N[C@@H](C)C(=O)N[C@@H](Cc1ccccc1)C(=O)OC)c1ccccc1`: the TGI in [1], in assay [2], in [3], in assay [4], in assay [5] and in [6] was over 100 µM each time. The TGI in assay [7], in assay [8], in [9] and in assay [10] was over 100 µM throughout.

Consider `CC(C)Oc1cccc(N2C(=NCc3c[nH]c4ccccc34)Nc3ccncc3S2(=O)=O)c1`, for which the TGI in assay [1] is 97.4 µM; in [2], over 100 µM; in assay [3] it was over 100 µM; in assay [4], 93.5 µM; in assay [5] it was over 100 µM; in [6], 67.7 µM. Further, the TGI is 62.6 µM in assay [7], 81.6 µM in assay [8], 97.5 µM in assay [9] and over 100 µM in assay [10].

Take `C=C(C)[C@H]1C2=CC(C(=O)OC)=C(C[C@H](C(=C)C)[C@@H](O)[C@@H](O)C3=C[C@H]1OC3=O)O2`: the TGI in assay [1], in assay [2], in assay [3], in assay [4], in assay [5] and in assay [6] was over 100 µM in each case. The TGI in assay [7] is over 100 µM; in assay [8], over 100 µM; in assay [9], over 100 µM; in assay [10], 85.6 µM.

On to `OCCCc1ccc2c(c1)[C@H](CO)[C@@H](c1ccc(O)cc1)O2`, for which the TGI in [1], in [2], in assay [3], in [4], in [5] and in assay [6] was over 100 µM in each case. For the same compound, the TGI in assay [7] is over 100 µM; in assay [8] it was 38.6 µM; in assay [9], over 100 µM; in assay [10] it was over 100 µM.

As to `O=C(O)C(O)C(O)C(O)C(O)CO` (stereo not given), the TGI in [1], in [2], in [3], in assay [4], in assay [5] and in assay [6] was over 100 µM each time. In addition, the TGI in assay [7], in [8], in assay [9] and in [10] was over 100 µM throughout.

As for `CSc1csc(-c2ccc(-c3ccc(-c4cc(SC)cs4)s3)s2)c1`, the TGI in [1], in assay [2], in assay [3], in assay [4], in assay [5] and in assay [6] was over 100 µM throughout. The TGI in assay [7], in assay [8], in assay [9] and in assay [10] was over 100 µM throughout.

For `CCN(CC)c1ccc(/C=C/c2ccnc3ccccc23)cc1`, the TGI in assay [1], in [2], in assay [3], in assay [4], in assay [5] and in [6] was over 100 µM each time. For the same compound, the TGI in assay [7], in assay [8], in assay [9] and in assay [10] was over 100 µM throughout.

With `CC1(C)C=CC(=O)C(O)C(C)(C)C1=O` (stereo not given), the TGI in assay [1], in assay [2], in [3], in assay [4], in assay [5] and in assay [6] was over 100 µM each time. Besides, the TGI in assay [7], in assay [8], in assay [9] and in assay [10] was over 100 µM throughout.

Regarding `O=C1N(Cc2ccccc2)C2CSCC2N1Cc1ccccc1` (stereo not given), the TGI in [1] was 85.9 µM; in [2], 51.5 µM; in assay [3], over 100 µM; in assay [4] it was 79.2 µM; in [5] it was over 100 µM; in [6], over 100 µM. The TGI is 33.7 µM in assay [7], 66.5 µM in assay [8], 69.4 µM in assay [9] and 93.5 µM in [10].

Consider `C[C@@H]1CCC2[C@@H](C)[C@@H](O[C@H]3O[C@@H]4O[C@@]5(C)CCC6[C@H](C)CCC([C@H]3C)[C@]64OO5)O[C@@H]3O[C@@]4(C)CCC1[C@@]23OO4` (stereo not given in full), for which the TGI in assay [1], in assay [2], in assay [3], in assay [4], in assay [5] and in assay [6] was over 25 µM each time. Further, the TGI in [7], in [8], in [9] and in [10] was over 25 µM each time.

Consider `COc1cccc2c1OC(c1cccc3ccccc13)C([N+](=O)[O-])=C2` (stereo not given), for which the TGI in assay [1] was 5.77 µM; in assay [2] it was 3.02 µM; in assay [3] it was 3.62 µM; in [4], 2.35 µM; in assay [5], 7.5 µM; in assay [6], 2.65 µM. Further, the TGI amounted to 2.77 µM in assay [7], 11 µM in assay [8], 7.29 µM in [9] and 2.75 µM in assay [10].

Take `N#CC(c1ccccc1)N(CCOCCOCCN(C(=O)c1ccccc1)C(C#N)c1ccccc1)C(=O)c1ccccc1` (stereo not given): the TGI in [1], in [2], in [3], in assay [4], in [5] and in assay [6] was over 100 µM throughout. Further, the TGI in assay [7], in assay [8], in [9] and in [10] was over 100 µM throughout.

Turning to `CC(C)(C)OC(=O)NC(CSSCC(NC(=O)OC(C)(C)C)C(=O)O)C(=O)O` (stereo not given), the TGI in [1], in assay [2], in [3], in assay [4], in assay [5] and in [6] was over 100 µM in each case. The TGI in [7], in [8], in [9] and in assay [10] was over 100 µM in each case.

Regarding `CC1=C(C#N)c2nc3ccccc3n2C(=O)C1(C)CCO` (stereo not given), the TGI in assay [1], in assay [2], in assay [3], in assay [4], in assay [5] and in assay [6] was over 100 µM throughout. For the same compound, the TGI in assay [7], in [8], in assay [9] and in assay [10] was over 100 µM throughout.

With `C=CCn1c(=O)ccn(/C(=C/C(=O)OCC)C(=O)OCC)c1=O`, the TGI in assay [1] is 24.1 µM; in assay [2], 26.2 µM; in assay [3], 29.9 µM; in assay [4], 29.7 µM; in [5] it was 29.7 µM; in assay [6] it was 30.4 µM. In addition, the TGI in assay [7] was found to be 28.1 µM; in assay [8], 73.4 µM; in assay [9], 50.8 µM; in assay [10], 28.6 µM.

Consider `CCOC(=O)C(NC(=O)CC)(N1CCN(c2cc3c(cc2F)c(=O)c(C(=O)O)cn3C2CC2)CC1)C(F)(F)F` (stereo not given), for which the TGI in [1], in assay [2], in [3], in [4], in assay [5] and in assay [6] was over 100 µM in each case. Besides, the TGI in [7], in [8], in assay [9] and in assay [10] was over 100 µM throughout.

Take `Cn1c2ccccc2c2c(=S)c3ccccc3ccc21`: the TGI in assay [1], in [2], in assay [3], in assay [4], in assay [5] and in [6] was over 100 µM in each case. Moreover, the TGI in assay [7], in assay [8], in [9] and in [10] was over 100 µM in each case.

For the compound `CCc1n[nH]c(=O)n1-c1ccc2ccccc2c1`, the TGI in assay [1], in assay [2], in [3], in assay [4], in assay [5] and in [6] was over 100 µM each time. The TGI in [7], in assay [8], in [9] and in assay [10] was over 100 µM in each case.
